16 compounds from patent publication US5561119A, “Glycosylated prodrugs, their method of preparation and their uses” (Laboratoires Hoechst, priority 1991, dated 1996) can be followed below.

A short description of data set [1]: incubation of 60 with α-galactosidase from unroasted coffee beans (HPLC). The data set is classed as biochemical, [550, 560, 561]. As to conditions: pH 6.8 (0.02M phosphate buffer), 37° C., 0.04 U/ml enzyme, 60 at 660 μg/ml.
Data set [2] can be described thus: hydrolysis of acetates in vivo. As to conditions: 6, 13 and 48a to 7, 14 and 48b respectively.
Data set [3] is described as follows: Proliferation test (MTT reduction) in L1210 tumoral cells. As to conditions: 72 hours, 37° C. The class given is cell-based, [569, 570, 571, 572, 573, 575]. A general note: Tetrazolium assays rely on reduction of a dye to a coloured formazan, in cell work by metabolically active cells.
A further data set in a line: stability in plasma. The class given is in vitro ADME.
The nature of data set [4]: hydrolysis of 48b by α-galactosidase (HPLC). The data set is classed as biochemical, [550, 552, 554]. Particulars: placental alpha-galactosidase; α-galactosidase from human placenta, 0.075M N-acetylgalactosamine, 37° C., pH 5 (0.02M phosphate buffer); read-out: half-life of hydrolysis of the glycoside (converted).
Data set [5] is described as follows: cleavability of glycosylated prodrugs by recombinant β-glucuronidase (reversed-phase HPLC). As to conditions: for half-life: beta-glucuronidase; for t1/2 arm: time for conversion of 50% of the anthracycline/arm compound to active anthracycline, 37° C., 1 U/ml, pH 7.2 to 6.8.
Data set [6] is described as follows: cleavability of glycosylated prodrugs by α-galactosidase from coffee beans (reversed-phase HPLC). The data set is classed as biochemical, [595, 596, 597]. As to conditions: 37° C., 1 U/ml, pH 7.2 to 6.8.
The conditions of data set [7]: beta-glucuronidase.

In brackets after ≈: the same amount, converted by molar mass.

On to `COc1cccc2c1C(=O)c1c(O)c3c(c(O)c1C2=O)C[C@@](O)(C(C)=O)C[C@@H]3O[C@H]1C[C@H](NC(=O)OCc2ccc(O)c(Cl)c2)[C@H](O)[C@H](C)O1` [deglycosidated derivative 60], for which the “detection of the deglycosidated derivative” value in data set [1] is listed as “not detected because of its high rate of disappearance”. As a reminder, the IC50 is the concentration needed to halve the response being measured. For the compound `COc1cccc2c1C(=O)c1c(O)c3c(c(O)c1C2=O)C[C@@](O)(C(C)=O)C[C@@H]3O[C@H]1C[C@H](NC(=O)OCc2ccc(O[C@H]3O[C@H](COC(C)=O)[C@H](OC(C)=O)[C@H](OC(C)=O)[C@H]3OC(C)=O)cc2)[C@H](O)[C@H](C)O1` [derivative 6, N-[4-(2,3,4,6-Tetra-O-acetyl-α-D-galactopyranosyl)benzyloxycarbonyl]daunorubicin], in data set [2], the “hydrolysis in vivo to the deacetylated prodrug” value (“hydrolysis in vivo” below) is “hydrolyzed in vivo”. Moreover, in data set [3], the IC50 is more than 1 µg/mL. In data set [3], `COc1cccc2c1C(=O)c1c(O)c3c(c(O)c1C2=O)C[C@@](O)(C(C)=O)C[C@@H]3O[C@H]1C[C@H](NC(=O)OCc2ccc(O[C@H]3O[C@H](CO)[C@H](O)[C@H](O)[C@H]3O)cc2)[C@H](O)[C@H](C)O1` [derivative 7, N-[4-(α-D-Galactopyranosyl)benzyloxycarbonyl]daunorubicin] had an IC50 of more than 1 µg/mL. Take `COc1cccc2c1C(=O)c1c(O)c3c(c(O)c1C2=O)C[C@@](O)(C(C)=O)C[C@@H]3O[C@H]1C[C@H](NC(=O)OCc2ccccc2O[C@H]2O[C@H](COC(C)=O)[C@H](OC(C)=O)[C@H](OC(C)=O)[C@H]2OC(C)=O)[C@H](O)[C@H](C)O1` [derivative 13, N-[2-(2,3,4,6-Tetra-O-acetyl-α-D-galactopyranosyl)benzyloxycarbonyl]daunorubicin]: the “hydrolysis in vivo” value in data set [2] is “hydrolyzed in vivo”. The compound further displayed an IC50 in data set [3] of more than 1 µg/mL. The compound `COc1cccc2c1C(=O)c1c(O)c3c(c(O)c1C2=O)C[C@@](O)(C(C)=O)C[C@@H]3O[C@H]1C[C@H](NC(=O)OCc2ccccc2O[C@H]2O[C@H](CO)[C@H](O)[C@H](O)[C@H]2O)[C@H](O)[C@H](C)O1` [derivative 14, N-[2-(α-D-Galactopyranosyl)benzyloxycarbonyl]daunorubicin] displayed a half-maximal inhibitory concentration (IC50) in data set [3] of more than 1 µg/mL.

The compound `COc1cccc2c1C(=O)c1c(O)c3c(c(O)c1C2=O)C[C@@](O)(C(C)=O)C[C@@H]3O[C@H]1C[C@H](NC(=O)OCc2ccc(O[C@@H]3O[C@H](C(=O)O)[C@@H](O)[C@H](O)[C@H]3O)cc2)[C@H](O)[C@H](C)O1` [derivative 22, N-(4-Hydroxybenzyloxycarbonyl)daunorubicin β-D-glucuronide] had a 50% inhibitory concentration (IC50) in data set [3] of more than 10 µg/mL. In turn, `COc1cccc2c1C(=O)c1c(O)c3c(c(O)c1C2=O)C[C@@](O)(C(C)=O)C[C@@H]3O[C@H]1C[C@H](NC(=O)OCc2ccccc2O[C@@H]2O[C@H](C(=O)O)[C@@H](O)[C@H](O)[C@H]2O)[C@H](O)[C@H](C)O1` [derivative 27c, N-[2-((β-D-Glucopyranosyl)uronic acid)benzyloxycarbonyl]daunorubicin] had a half-inhibitory concentration (IC50) in data set [3] of more than 1 µg/mL. With `COc1cccc2c1C(=O)c1c(O)c3c(c(O)c1C2=O)C[C@@](O)(C(C)=O)C[C@@H]3O[C@H]1C[C@H](NC(=O)OCc2cc([N+](=O)[O-])ccc2O[C@H]2O[C@H](COC(C)=O)[C@H](OC(C)=O)[C@H](OC(C)=O)[C@H]2OC(C)=O)[C@H](O)[C@H](C)O1` [derivative 48a, N-[2-(2,3,4,6-Tetra-O-acetyl-α-D-galactopyranosyl)-5-nitrobenzyloxycarbonyl]daunorubicin], the “hydrolysis in vivo” value in data set [2] is on record as “hydrolyzed in vivo”. In data set [3], this compound displayed a half-inhibitory concentration (IC50) of more than 10 µg/mL. In the case of `COc1cccc2c1C(=O)c1c(O)c3c(c(O)c1C2=O)C[C@@](O)(C(C)=O)C[C@@H]3O[C@H]1C[C@H](NC(=O)OCc2cc([N+](=O)[O-])ccc2O[C@H]2O[C@H](CO)[C@H](O)[C@H](O)[C@H]2O)[C@H](O)[C@H](C)O1` [derivative 48b, N-[2-(α-D-Galactopyranosyl)-5-nitrobenzyloxycarbonyl]daunorubicin], in “stability in plasma”, the stability in plasma entry was “stable in plasma”. Moreover, in data set [4], the half-life is 60 min. The compound further yielded an IC50 in data set [3] of more than 1 µg/mL.

In the case of `COc1cccc2c1C(=O)c1c(O)c3c(c(O)c1C2=O)C[C@@](O)(C(C)=O)C[C@@H]3O[C@H]1C[C@H](NC(=O)OCc2cc([N+](=O)[O-])ccc2O[C@@H]2O[C@H](C(=O)O)[C@@H](O)[C@H](O)[C@H]2O)[C@H](O)[C@H](C)O1` [derivative 54c, N-[2-((β-D-Glucopyranosyl)uronic acid)-5-nitrobenzyloxycarbonyl]daunorubicin], in data set [5], the half-life was 41.4 min and the t1/2 arm is recorded as 5,30 h. In the case of `COc1cccc2c1C(=O)c1c(O)c3c(c(O)c1C2=O)C[C@@](O)(C(C)=O)C[C@@H]3O[C@H]1C[C@H](NC(=O)OCc2ccc(O[C@H]3O[C@H](CO)[C@H](O)[C@H](O)[C@H]3O)c(Cl)c2)[C@H](O)[C@H](C)O1` [derivative 60, N-[3-Chloro-4-(α-D-galactopyranosyl)benzyloxycarbonyl]daunorubicin], the half-life in data set [6] (alpha-galactosidase, time for cleavage of 50% of the glycoside, read-out: t1/2 cleavage of the glycoside (converted)) was 1.2 min. Also, the t1/2 arm in data set [6] (time for conversion of 50% of the anthracycline/arm compound to active anthracycline) was < 0,08 h. In the case of `COc1cccc2c1C(=O)c1c(O)c3c(c(O)c1C2=O)C[C@@](O)(C(C)=O)C[C@@H]3O[C@H]1C[C@H](NC(=O)OCc2ccc(O[C@@H]3O[C@H](C(=O)O)[C@@H](O)[C@H](O)[C@H]3O)c([N+](=O)[O-])c2)[C@H](O)[C@H](C)O1` [derivative 64c, N-(4-Hydroxy-3-nitrobenzyloxycarbonyl)daunorubicin β-D-glucuronide], in data set [5], the half-life is 25.2 min and the t1/2 arm is listed as < 0,08 h.

Consider `COc1cc(O[C@@H]2O[C@H](C(=O)O)[C@@H](O)[C@H](O)[C@H]2O)c(COC(=O)N[C@H]2C[C@H](O[C@H]3C[C@](O)(C(C)=O)Cc4c(O)c5c(c(O)c43)C(=O)c3c(OC)cccc3C5=O)O[C@@H](C)[C@H]2O)cc1[N+](=O)[O-]` [derivative 68c, N-[4-Methoxy-5-nitro-2-((β-D-glucopyranosyl)uronic acid)benzyloxycarbonyl]daunorubicin], for which, in data set [5], the half-life was 113 min and the t1/2 arm is 0,75 h. Consider `COc1cccc2c1C(=O)c1c(O)c3c(c(O)c1C2=O)CC(O)(C(=O)CO)CC3OC1CC(NC(=O)OCc2ccc(OC3OC(C(=O)O)C(O)C(O)C3O)c([N+](=O)[O-])c2)C(O)C(C)O1` [derivative 70c, N-[4-hydroxy-3-nitro-benzyloxy-carbonyl) doxorubicin β-D-glucuronide], for which the “t1/2 cleavage of the glycoside” value in data set [7] is 0,92 h. `COc1cccc2c1C(=O)c1c(O)c3c(c(O)c1C2=O)C[C@@](O)(C(C)=O)C[C@@H]3O[C@H]1C[C@H](NC(=O)OCc2cc(Cl)ccc2O[C@@H]2O[C@H](C(=O)O)[C@@H](O)[C@H](O)[C@H]2O)[C@H](O)[C@H](C)O1` [derivative 82c, N-[2-((β-D-glucopyranosyl)uronic acid)-5-chlorobenzyloxycarbonyl]daunorubicin]: in data set [5], the half-life is 244 min and the t1/2 arm is 12,00 h. The compound `COc1cccc2c1C(=O)c1c(O)c3c(c(O)c1C2=O)C[C@@](O)(C(=O)CO)C[C@@H]3O[C@H]1C[C@H](N)[C@H](O)[C@H](C)O1` [doxorubicin, reference compound] gave an IC50 in data set [3] of 0.02 µg/mL (≈ 0.0368 µM).
